Key:
in vivo = settings: mouse, mice, oral
Description: The toxicity was determined on mice after oral adminstration.

rats = assay: antiphlogistic effect on rats, method of Winter; format: in vivo; settings: oral; for ED50: Rattus norvegicus
Description: The antiphlogistic effects of the new compounds were determined on rats by the method of Winter [Proc. Soc. Exp. Biol. Med. 111, 544 (1962)]. The compounds were administered orally to the animals.

mice [1] = assay: narcosis potentiating effect on mice, method of Kaergaard; settings: for ED50: Mus musculus, po; for Therapeutical index: narcosis potentiating effect, mice, oral
Description: The narcosis potentiating effects was tested on mice according to the method of Kaergaard [Arch. […] The compounds under examination were administered orally to the animals.

mice [2] = assay: animal or person; format: in vivo; settings: potentiation of the toxicity of yohimbine, oral; for ED50: Mus musculus
Description: The ability of the compounds in potentiating the toxicity of yohimbine was tested on mice by the method of Quinton [Brit. J. Pharmacol. 21, 51 (1963)]. The compounds were administered orally to the animals.

mice [3] = assay: tetrabenazine antagonizing effect (inhibition of ptosis provoked by tetrabenazine) on mice, method of Brodie; format: in vivo; settings: oral
mice [4] = assay: motility inhibiting effect on mice, method of Borsy et al.; format: in vivo; settings: for ED50: Mus musculus
Description: The motility inhibiting effects of the new compounds were tested on mice by the method of Borsy et al. [Int. Pharmacodyn. […] The compounds to be tested were administered orally to the animals.

mice [5] = assay: analgesic effect on mice, method of Newbould; format: in vivo; settings: oral; for ED50: Mus musculus
Description: The analgesic effects of the new compounds were tested on mice after oral administration, as described by Newbould [Brit.

[6] = motility inhibiting effect, mice, oral

| Structure (SMILES) | LD50 (in vivo) | ED50 (rats) | Therapeutical index (rats) | ED50 (mice [1]) | Therapeutical index (mice [1]) | ED50 (mice [2]) | Therapeutical index (mice [2]) | ED50 (mice [3]; Mus musculus) | Therapeutical index (mice [3]) | ED50 (mice [4]; motility inhibiting effect, mice, oral, read-out: ED50) | Therapeutical index (mice [4]; [6]) | ED50 (mice [5]) | Therapeutical index (mice [5]) | ED50 (mice [4]; po) |
| --- | --- | --- | --- | --- | --- | --- | --- | --- | --- | --- | --- | --- | --- | --- |
| CCC(=O)N1NC(N(C(C)C)C(C)C)=Nc2ncccc21 [Example 2, 3-diisopropylamino-1-propionyl-1,2-dihydro-pyrido[2,3-e]-as-triazine] | 2000 mg/kg | 450 mg/kg | 4.4 | 40 mg/kg | 50 | 140 mg/kg | 14.3 | 150 mg/kg | 13.3 | 250 mg/kg | 8 | 350 mg/kg | 5.7 |  |
| CCC(=O)N1C(N2CCOCC2)=Nc2ncccc2N1C(=O)CC [Example 1, 3-morpholino-1,2-dipropionyl-1,2-dihydro-pyrido[2,3-e]-as-triazine] | 1600 mg/kg | 300 mg/kg | 5.3 | 54 mg/kg | 29.6 | 320 mg/kg | 5 |  | 5 |  | 5 | 300 mg/kg | 5.3 |  |
| CCCC(C)(COC(N)=O)COC(N)=O [Meprobamate, reference compound] |  |  |  | 250 mg/kg | 4.2 |  |  |  |  |  | 4.1 |  |  | 270 mg/kg |
| CC(=O)Nc1ccc(O)cc1 [Paracetamol, reference compound] |  |  |  |  |  |  |  |  |  |  |  | 180 mg/kg |  |  |
